Holding throughout (format): cell-based, Influenza A virus (A/Puerto Rico/8/1934(H1N1))
Experiment [1] can be described thus: Inhibition of Influenza A virus (A/PR 8/34 (H1N1)) hemagglutinin HA1 chain S326V mutant transfected in human HeLa cells assessed as reduction in low pH-indued polykaryon formation preincubated for 15 mins followed by pH 5.2 buffer addition and measured after 5 mins by giemsa staining based microscopic analysis.
The nature of experiment [2]: Inhibition of Influenza A virus (A/PR 8/34 (H1N1)) hemagglutinin HA1 chain 1324T mutant transfected in human HeLa cells assessed as reduction in low pH-indued polykaryon formation preincubated for 15 mins followed by pH 5.2 buffer addition and measured after 5 mins by giemsa staining based microscopic analysis.
Experiment [3] in a line: Inhibition of Influenza A virus (A/PR 8/34 (H1N1)) hemagglutinin HA2 chain L99F mutant transfected in human HeLa cells assessed as reduction in low pH-indued polykaryon formation preincubated for 15 mins followed by pH 5.2 buffer addition and measured after 5 mins by giemsa staining based microscopic analysis.

pIC50: −log10 of the molar value.

As to `COC(=O)C[C@H](NC(=O)OC(C)(C)C)C(=O)N(Cc1ccc(F)cc1)C1(C(=O)NCc2ccccc2)CCN(Cc2ccccc2)CC1`, the pIC50 (in general, −log10 of the IC50, conventionally taken in molar units) in experiment [1] was < 4.00; in experiment [2], 5.49; in experiment [3] it was < 4.00.
